These compounds were tested against T1, CFTR (Homo sapiens, UniProt P13569) (assay: T84 assay (FLIPR membrane potential dye, forskolin/IBMX-stimulated CFTR channel activity)). Settings: imidazole and triazole-containing compounds (Tables 13, 14, 14′), read-out: IC50 (μM) (T84 assay).
T1 construct: endogenous in cells; host or cells: T84 human colonic cells (ECACC)
Assay type: cell-based
Protocol: (§1) For example, Human colonic T84 cells can be acquired from the European Collection of Cell Cultures (ECACC) and grown in standard culture conditions as described by the supplier. On the day before assay 25,000 T84 cells per well are plated into standard black walled, clear bottom 384-well assay plates in standard growth medium consisting of DMEM:F12 with 10% FBS and incubated overnight. On the day of the assay the plates are washed using a standard assay buffer (HBSS with 10 mM Hepes) and incubated for 15 minutes in serum free cell culture medium before the addition of a commercially available membrane potential sensitive fluorescent dye (FLIPRRed membrane potential dye, Molecular Devices Corporation). T84 cells are incubated with the FLIPRRed membrane potential dye for 45 minutes in the presence and absence of test compound before being transferred to a commercially available fluorescence imaging plate reader (FLIPR384, Molecular Devices Corporation). Fluorescence levels are monitored continuously every second for 150 seconds; after an initial 10 second baseline, CFTR channel activity is stimulated through the addition of 10 μM forskolin in the presence of 100 μM of the phosphodiesterase inhibitor iso-butyl-methylxanthine (IBMX). Addition of the forskolin leads to the activation of intracellular adenylyl cylase 1, elevating cAMP levels and results in the phosphorylation and opening of CFTR anion channels. CFTR channel opening causes chloride ion efflux and subsequent depolarization of the cells, which is measured by an increase in fluorescence. CFTR inihibitor compounds prevent cell depolarization and the associatred increase in fluorescence.
as §1, with “Human colonic” for “For example, Human colonic”, “T84 cells are acquired from” for “T84 cells can be acquired from”, “(ECACC) and are grown in” for “(ECACC) and grown in”, “10 μM Forskolin in the” for “10 μM forskolin in the”, “fluorescence. CFTR inhibitor compounds prevent” for “fluorescence. CFTR inihibitor compounds prevent”, “and the associated increase in” for “and the associatred increase in”

T1 sequence (P13569 whole entry): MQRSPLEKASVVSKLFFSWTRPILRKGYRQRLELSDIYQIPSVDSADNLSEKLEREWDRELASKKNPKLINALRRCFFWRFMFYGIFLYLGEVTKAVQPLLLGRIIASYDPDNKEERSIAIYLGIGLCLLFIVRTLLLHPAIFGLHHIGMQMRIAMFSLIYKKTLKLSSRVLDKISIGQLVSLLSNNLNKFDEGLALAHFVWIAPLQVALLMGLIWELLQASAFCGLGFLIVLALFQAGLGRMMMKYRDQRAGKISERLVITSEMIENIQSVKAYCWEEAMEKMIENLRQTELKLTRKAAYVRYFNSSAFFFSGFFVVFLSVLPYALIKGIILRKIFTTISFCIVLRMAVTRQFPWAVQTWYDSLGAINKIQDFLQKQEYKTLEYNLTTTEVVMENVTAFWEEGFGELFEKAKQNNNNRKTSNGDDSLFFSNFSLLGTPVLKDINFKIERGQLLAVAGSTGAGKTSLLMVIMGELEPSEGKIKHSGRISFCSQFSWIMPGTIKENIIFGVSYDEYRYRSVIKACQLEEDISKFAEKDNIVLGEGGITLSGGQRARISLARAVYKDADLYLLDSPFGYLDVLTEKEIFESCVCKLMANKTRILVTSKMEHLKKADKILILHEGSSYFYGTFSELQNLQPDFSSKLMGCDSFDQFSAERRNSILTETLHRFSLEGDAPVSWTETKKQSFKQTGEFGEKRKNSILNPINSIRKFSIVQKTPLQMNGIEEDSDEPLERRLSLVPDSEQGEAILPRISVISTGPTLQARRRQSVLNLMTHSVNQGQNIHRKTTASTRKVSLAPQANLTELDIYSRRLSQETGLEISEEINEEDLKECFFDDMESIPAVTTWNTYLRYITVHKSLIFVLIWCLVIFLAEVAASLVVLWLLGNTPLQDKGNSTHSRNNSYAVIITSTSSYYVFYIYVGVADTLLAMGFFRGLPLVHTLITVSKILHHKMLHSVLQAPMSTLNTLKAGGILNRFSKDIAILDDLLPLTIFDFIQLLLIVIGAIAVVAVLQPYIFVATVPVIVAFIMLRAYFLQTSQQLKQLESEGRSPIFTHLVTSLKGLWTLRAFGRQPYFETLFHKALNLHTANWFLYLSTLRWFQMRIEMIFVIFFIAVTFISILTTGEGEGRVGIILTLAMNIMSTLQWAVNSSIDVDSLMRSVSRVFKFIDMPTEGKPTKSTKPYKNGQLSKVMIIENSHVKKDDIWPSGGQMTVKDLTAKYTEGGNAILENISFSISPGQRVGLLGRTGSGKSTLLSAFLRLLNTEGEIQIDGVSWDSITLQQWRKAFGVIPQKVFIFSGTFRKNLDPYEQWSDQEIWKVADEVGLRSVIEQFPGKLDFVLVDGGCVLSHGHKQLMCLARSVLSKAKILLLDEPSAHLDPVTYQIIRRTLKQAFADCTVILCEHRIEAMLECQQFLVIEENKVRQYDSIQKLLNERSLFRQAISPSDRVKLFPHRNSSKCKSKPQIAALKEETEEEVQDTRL

SMILES	IC50
CN(Cc1cccc(C(F)(F)F)c1)C(=O)c1ncn(-c2cc(Cl)c(O)c(Cl)c2)n1 [6i, 1-(3,5-dichloro-4-hydroxyphenyl)-N-methyl-N-(3-(trifluoromethyl)benzyl)-1H-1,2,4-triazole-3-carboxamide]	16.2 µM
CN(Cc1ccc(OC(F)(F)F)cc1)C(=O)c1ncn(-c2cc(Cl)c(O)c(Cl)c2)n1 [7i, 1-(3,5-dichloro-4-hydroxyphenyl)-N-methyl-N-(4(trifluoromethoxy)benzyl)-1H-1,2,4-triazole-3-carboxamide]	15.7 µM
O=C(NCc1cccc(C(F)(F)F)c1)c1ncn(-c2cc(Cl)c(O)c(Cl)c2)n1 [8i, 1-(3,5-dichloro-4-hydroxyphenyl)-N-(3-(trifluoromethyl)benzyl)-1H-1,2,4-triazole-3-carboxamide]	22.4 µM
CC(NC(=O)c1ncn(-c2cc(Cl)c(O)c(Cl)c2)n1)c1ccc(F)cc1 (stereo not drawn) [9i, 1-(3,5-dichloro-4-hydroxyphenyl)-N-(1-(4-fluorophenyl)ethyl)-1H-1,2,4-triazole-3-carboxamide]	17.6 µM

Same assay, conditions: isoxazole-containing compounds (Table 10, 10′, 11, 11′), read-out: IC50

SMILES	IC50
CN(Cc1ccc(C(F)(F)F)cc1)C(=O)c1cc(-c2cc(Cl)c(O)c(Cl)c2)on1 [7g, 5-(3,5-dichloro-4-hydroxyphenyl)-N-methyl-N-(4(trifluoromethyl)benzyl)isoxazole-3-carboxamide]	10.6 µM
CN(Cc1ccc2c(c1)OCO2)C(=O)c1cc(-c2cc(Cl)c(O)c(Cl)c2)on1 [8g, N-(benzo[d][1,3]dioxol-5-ylmethyl)-5-(3,5-dichloro-4-hydroxyphenyl)-N-methylisoxazole-3-carboxamide]	14.6 µM
O=C(c1cc(-c2cc(Br)c(O)c(Br)c2)on1)N1CCC(Cc2ccccc2)CC1 [9g, (4-Benzylpiperidin-1-yl)(5-(3,5-dibromo-4-hydroxyphenyl)isoxazol-3-yl)methanone]	8.96 µM

Same assay, conditions: oxadiazole-containing compounds (a series), average of at least 2 runs unless annotated n = 1, read-out: IC50

SMILES	IC50
O=C(NCc1ccc(Oc2ccccc2)cc1)c1nc(-c2cc(Cl)c(O)c(Cl)c2)no1 [7a, 3-(3,5-dichloro-4-hydroxyphenyl)-N-(4-phenoxybenzyl)-1,2,4-oxadiazole-5-carboxamide]	5.22 µM
O=C(c1nc(-c2cc(Cl)c(O)c(Cl)c2)no1)N1CCN(c2cccc(C(F)(F)F)c2)CC1 [8a, (3-(3,5-dichloro-4-hydroxyphenyl)-1,2,4-oxadiazol-5-yl)(4-(3-(trifluoromethyl)phenyl) 4-(3-(trifluoromethyl)phenyl)piperazin-1-yl)methanone]	6.88 µM
O=C(NCC(c1ccccc1)c1ccccc1)c1nc(-c2cc(Br)c(O)c(Br)c2)no1 [9a, 3-(3,5-dibromo-4-hydroxyphenyl)-N-(2,2-diphenylethyl)-1,2,4-oxadiazole-5-carboxamide]	7.17 µM
O=C(NCc1ccc2sccc2c1)c1nc(-c2cc(Br)c(O)c(Br)c2)no1 [10a, N-(benzo[b]thiophen-5-ylmethyl)-3-(3,5-dibromo-4-hydroxyphenyl)-1,2,4-oxadiazole-5-carboxamide]	7.26 µM

Same assay, conditions: thiadiazole-containing compounds (Table 12), read-out: IC50

SMILES	IC50
Oc1c(Cl)cc(-c2nnc(Cc3ccsc3)s2)cc1Cl [6h, 2,6-dichloro-4-(5-(thiophen-3-ylmethyl)-1,3,4-thiadiazol-2-yl)phenol]	17.6 µM
Oc1c(Cl)cc(-c2nnc(COc3cccc(C(F)(F)F)c3)s2)cc1Cl [7h, 2,6-dichloro-4(5-((3-(trifluoromethyl)phenoxy)methyl)-1,3,4-thiadiazol-2-yl)phenol]	23.4 µM
CN(CCO)C(=O)COc1c(Cl)cc(-c2nnc(CN3c4ccccc4Sc4ccccc43)s2)cc1Cl [8h, 2-(4-(5-((10H-phenothiazin-10-yl)methyl)-1,3,4-thiadiazol-2-yl)-2,6-dichlorophenoxy)-N-(2-hydroxyethyl)-N-methylacetamide]	8.64 µM
O=C(COc1c(Cl)cc(-c2nnc(CN3c4ccccc4Sc4ccccc43)s2)cc1Cl)N(CCO)CCO [9h, 2-(4-(5-((10H-phenothiazin-10-yl)methyl)-1,3,4-thiadiazol-2-yl)-2,6-dichlorophenoxy)-N,N-bis(2-hydroxyethyl)acetamide]	9.69 µM

— patent US20100144733A1, “Compounds, compositions and methods comprising heteroaromatic derivatives” (Institute for OneWorld Health, priority 2008, published 2010)
